Measured values published in PubChem BioAssay AID328 (DTP/NCI, 2004).
“And” between values parts separate entries of the source, which are not always exact repeats. Equal entries are not always repeated. Toxic doses and inconclusive results are not listed.

System: BDF1 mice, P388 leukemia ip, median survival T/C
Assay: NCI In Vivo Anticancer Drug Screen. Data for tumor model P388 Leukemia (intraperitoneal) in B6D2F1 (BDF1) mice
Conditions: endpoint: median survival time, higher = longer survival
In short: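 Steps: implant the tumour, treat one group with compound and another with vehicle, record survival, then divide treated by control.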

[1] = dose: 100.0 mg/kg/injection, schedule: Q04DX003 (ip), vehicle: saline
[2] = dose: 200.0 mg/kg/injection, schedule: Q04DX003 (ip), vehicle: saline
[3] = dose: 400.0 mg/kg/injection, schedule: Q04DX003 (ip), vehicle: saline
[4] = dose: 50.0 mg/kg/injection, schedule: Q01DX009 (ip), vehicle: saline with Tween-80
[5] = dose: 100.0 mg/kg/injection, schedule: Q01DX009 (ip), vehicle: saline with Tween-80
[6] = dose: 100.0 mg/kg/injection, schedule: Q04DX003 (ip), vehicle: saline with Tween-80
[7] = dose: 200.0 mg/kg/injection, schedule: Q01DX009 (ip), vehicle: saline with Tween-80
[8] = dose: 200.0 mg/kg/injection, schedule: Q04DX003 (ip), vehicle: saline with Tween-80

SMILES: CC(=O)OC1C(=O)C(O)C(C)OC1O[C@@H]1C[C@@]2(C)[C@@H]3CC=C4[C@@H](C[C@H](O)C(=O)C4(C)C)[C@]3(C)C(=O)C[C@]2(C)[C@H]1[C@@](C)(O)C(=O)/C=C/C(C)(C)O (some centres not stated)
- T/C (dose: 0.13 mg/kg/injection, schedule: Q01DX009 (ip), vehicle: Klucel (hydroxypropylcellulose) (HPC)): 104 % of control
- T/C (dose: 0.16 mg/kg/injection, schedule: Q01DX010 (ip), vehicle: saline): 107 % of control and 110 % of control
- T/C (dose: 0.25 mg/kg/injection, schedule: Q01DX009 (ip), vehicle: Klucel (hydroxypropylcellulose) (HPC)): 109 % of control
- T/C (dose: 0.25 mg/kg/injection, schedule: Q01DX010 (ip), vehicle: carboxymethylcellulose (CMC)): 90 % of control
- T/C (dose: 0.33 mg/kg/injection, schedule: Q01DX010 (ip), vehicle: saline): 109 % of control and 110 % of control
- T/C (dose: 0.5 mg/kg/injection, schedule: Q01DX009 (ip), vehicle: Klucel (hydroxypropylcellulose) (HPC)): 118 % of control
- T/C (dose: 0.5 mg/kg/injection, schedule: Q01DX010 (ip), vehicle: carboxymethylcellulose (CMC)): 87 % of control and 90 % of control
- T/C (dose: 0.67 mg/kg/injection, schedule: Q01DX010 (ip), vehicle: saline): 108 % of control and 110 % of control
- T/C (dose: 1.0 mg/kg/injection, schedule: Q01DX009 (ip), vehicle: Klucel (hydroxypropylcellulose) (HPC)): 113 % of control
- T/C (dose: 1.25 mg/kg/injection, schedule: Q01DX010 (ip), vehicle: saline): 109 % of control and 110 % of control
- T/C (dose: 1.4 mg/kg/injection, schedule: Q01DX009 (ip), vehicle: saline): 150 % of control
- T/C (dose: 2.0 mg/kg/injection, schedule: Q01DX009 (ip), vehicle: Klucel (hydroxypropylcellulose) (HPC)): 90 % of control
- T/C (dose: 2.5 mg/kg/injection, schedule: Q01DX010 (ip), vehicle: saline): 110 % of control and 111 % of control
- T/C (dose: 2.6 mg/kg/injection, schedule: Q01DX009 (ip), vehicle: saline): 120 % of control

SMILES: OCC1(CO)COC(c2ccccc2)OC1
- T/C (dose: 25.0 mg/kg/injection, schedule: Q04DX003 (ip), vehicle: Klucel (hydroxypropylcellulose) (HPC)): 95 % of control
- T/C (dose: 50.0 mg/kg/injection, schedule: Q04DX003 (ip), vehicle: Klucel (hydroxypropylcellulose) (HPC)): 100 % of control
- T/C (dose: 100.0 mg/kg/injection, schedule: Q04DX003 (ip), vehicle: Klucel (hydroxypropylcellulose) (HPC)): 100 % of control

SMILES: O=[N+]([O-])c1ccc(N/N=C\c2ccc3ccccc3n2)cc1
- T/C (dose: 100.0 mg/kg/injection, schedule: Q01DX009 (ip), vehicle: saline): 104 % of control
- T/C [1]: 118 % of control
- T/C (dose: 200.0 mg/kg/injection, schedule: Q01DX009 (ip), vehicle: saline): 109 % of control
- T/C [2]: 104 % of control
- T/C [3]: 109 % of control

SMILES: COc1cc(C=Nc2ccc(-c3nc(Cc4ccccc4)sc3C)cc2)ccc1N(CCCl)CCCl
- T/C (dose: 3.13 mg/kg/injection, schedule: Q01DX009 (ip), vehicle: Klucel (hydroxypropylcellulose) (HPC)): 196 % of control
- T/C (dose: 6.25 mg/kg/injection, schedule: Q01DX009 (ip), vehicle: Klucel (hydroxypropylcellulose) (HPC)): 206 % of control
- T/C (dose: 12.5 mg/kg/injection, schedule: Q01DX009 (ip), vehicle: Klucel (hydroxypropylcellulose) (HPC)): 221 % of control
- T/C (dose: 25.0 mg/kg/injection, schedule: Q01DX009 (ip), vehicle: Klucel (hydroxypropylcellulose) (HPC)): 194 % of control and 198 % of control
- T/C (dose: 50.0 mg/kg/injection, schedule: Q01DX009 (ip), vehicle: Klucel (hydroxypropylcellulose) (HPC)): 108 % of control

SMILES: OC1c2cc(Cl)ccc2-c2c(Cl)cc(Cl)cc21 (configuration not stated)
- T/C [4]: 104 % of control
- T/C [5]: 100 % of control
- T/C [6]: 91 % of control
- T/C [7]: 108 % of control
- T/C [8]: 100 % of control

SMILES: Cc1ccc(NC(=O)c2ccccc2C(=O)O)c(C)c1
- T/C [6]: 100 % of control
- T/C [8]: 100 % of control
- T/C (dose: 400.0 mg/kg/injection, schedule: Q04DX003 (ip), vehicle: saline with Tween-80): 118 % of control

SMILES: CCOC(=O)/C(=C\c1ccc2c(c1)OCO2)NC(=O)c1ccccc1
- T/C (dose: 100.0 mg/kg/injection, schedule: Q01DX001 (ip), vehicle: Klucel (hydroxypropylcellulose) (HPC)): 104 % of control
- T/C [1]: 112 % of control
- T/C (dose: 200.0 mg/kg/injection, schedule: Q01DX001 (ip), vehicle: Klucel (hydroxypropylcellulose) (HPC)): 100 % of control
- T/C [2]: 95 % of control
- T/C (dose: 400.0 mg/kg/injection, schedule: Q01DX001 (ip), vehicle: Klucel (hydroxypropylcellulose) (HPC)): 100 % of control
- T/C [3]: 95 % of control

SMILES: COc1ccc(/C=N/Nc2nc3ccc4ccccc4c3s2)cc1
- T/C [4]: 90 % of control
- T/C [5]: 101 % of control
- T/C [7]: 115 % of control

SMILES: COc1ccc2c(c1)CCC1(C)C2=CC(=O)/C1=C\[O-].COc1ccc2c(c1)CCC1(C)C2=CC(=O)/C1=C\[O-].[Cu+2] (configuration not stated)
- T/C (dose: 25.0 mg/kg/injection, schedule: Q01DX009 (ip), vehicle: saline with Tween-80): 95 % of control
- T/C [4]: 95 % of control
- T/C [5]: 95 % of control
